Measured values: patent publication US20080214556A1 (priority 2007, published 2008)
Where two headings read alike, the source gives them in different places.

What was measured:
[1] = system: patients with non-ST elevation acute coronary syndrome; experiment: MERLIN-TIMI 36: efficacy endpoints (CV death, MI, recurrent ischemia, failure of therapy); assay type: in vivo, human
Source text: The MERLIN-TIMI 36 primary efficacy endpoint (ITT) time from randomization to first occurrence of cardiovascular death, myocardial infarction, or recurrent ischemia data is shown in Table 11 below (and FIGS. 4 and 5).
The MERLIN-TIMI 36 major secondary efficacy endpoint (ITT) time from randomization to first occurrence of cardiovascular death, myocardial infarction, or severe recurrent ischemia data is shown in Table 12 below (and FIGS. 6 and 7).
The secondary efficacy endpoint time from randomization to failure of therapy (cardiovascular death, […], recurrent ischemia, positive Holter for ischemia, New/Worsening heart failure, or early+ETT) data from MERLIN-TIMI 36 is shown in Table 14 below (and FIGS. 8 and 9).
The secondary efficacy endpoint (ITT) incidence at 30 days of cardiovascular death, myocardial infarction, severe recurrent ischemia, or positive Holter for ischemia data from MERLIN-TIMI 36 is shown in Table 15 below.
The data for time from randomization to first occurrence of cardiovascular death or myocardial infarction from MERLIN-TIMI 36 is shown in Table 20 below. For relative risk of CV death, MI, or recurrent ischemia by subgroup, see FIG. 10. For relative risk of CV death, MI, or severe recurrent ischemia by subgroup, see FIG. 11. For relative risks of failure of therapy by subgroup, see FIG. 12.

[2] = system: patients with non-ST elevation acute coronary syndrome; experiment: MERLIN-TIMI 36: Seattle Angina Questionnaire scores at 4 months; assay type: in vivo, human; conditions: ITT, N 2558
Source text: The MERLIN-TIMI 36 secondary efficacy endpoint (ITT) Seattle Angina Questionnaire scores at 4 months for anginal frequency scale are shown in Table 16 below, and scores for physical limitation scale are shown in Table 17 below.

[3] = system: patients with non-ST elevation acute coronary syndrome; experiment: MERLIN-TIMI 36: ischemia on Holter / continuous ECG (CECG) monitoring; assay type: in vivo, human; conditions: ranolazine vs placebo
Protocol: At randomization, 6355 patients (99%) had 3-lead CECG monitoring initiated (median duration 6.9 days). The primary CECG endpoint was the rate of ST dep≧1 mm from baseline lasting ≧1 minute with heart rate at onset <100 bpm. Exploratory analyses using ST dep≧0.5 mm were also performed.

[4] = system: patients with non-ST elevation acute coronary syndrome; experiment: MERLIN-TIMI 36: arrhythmias on 7 day continuous ECG (Holter) recording; assay type: in vivo, human
Protocol: The safety endpoint data for incidence of clinically significant arrhythmias during 7 day Holter monitoring from MERLIN-TIMI 36 is shown in Table 24 below.
Continuous ECG (Holter) recording was performed for the first 7 days after randomization. Because of the known prolongation of the QT interval with ranolazine, analyses of a prespecified set of arrhythmias were a major objective of the trial. All arrhythmias were evaluated in the TIMI ECG Core Laboratory by cardiologists blinded to treatment and outcomes.
Continuous ECG (cECG or Holter) recording was performed for the first 7 days after randomization. Prespecified arrhythmia analyses were evaluated by a core laboratory blinded to treatment and outcomes.

[5] = system: patients with non-ST elevation acute coronary syndrome; experiment: MERLIN-TIMI 36: adverse events; assay type: in vivo, human; conditions: n = 3268
[6] = system: patients with non-ST elevation acute coronary syndrome; experiment: MERLIN-TIMI 36: HbA1c and hyperglycemia; assay type: in vivo, human
Source text: The proportion of patients in the MERLIN-TIMI 36 study with HbA1C≧7% is shown in Table 28 below (and see FIG. 15).
The proportion of patients with HbA1C≧7% (with diabetes or no diabetes) at various times during the MERLIN-TIMI 36 study is shown in Table 29 below (and FIG. 16).
HbA1c data are reported as least-square means. Patients categorized as “diabetic” had been diagnosed as diabetic before or at the time of randomization. Patients categorized as “no diabetes” had not been diagnosed as diabetic before or at the time of randomization. Some patients characterized as “no diabetes” may have been diagnosed as “diabetic” during the trial; however, these patients are still listed in the “no diabetes” category in FIG. 4B.

[7] = system: patients with non-ST elevation acute coronary syndrome
[8] = ITT, n = 3279, major secondary efficacy endpoint
[9] = ITT, n = 3279, primary efficacy endpoint
[10] = placebo vs ranolazine, cECG monitoring
[11] = patients with DM treated with ranolazine

COc1ccccc1OCC(O)CN1CCN(CC(=O)Nc2c(C)cccc2C)CC1 (racemic) [Ranolazine, (±)—N-(2,6-dimethylphenyl)-4-[2-hydroxy-3-(2-methoxyphenoxy)-propyl]-1-piperazineacetamide]
Incidence (Kaplan-Meier estimate) of CV death or MI ([1]; 30 days, ITT): 4.2% | Incidence (Kaplan-Meier estimate) of CV death, MI, or recurrent ischemia ([1]; 30 days, ITT): 7.7% | Incidence (Kaplan-Meier estimate) of CV death, MI, or severe recurrent ischemia ([1]; 30 days, ITT): 7.5% | Incidence (Kaplan-Meier estimate) of CV death or MI ([1]; 60 days, ITT): 5.3% | Incidence (Kaplan-Meier estimate) of CV death, MI, or recurrent ischemia ([1]; 60 days, ITT): 9.9% | Incidence (Kaplan-Meier estimate) of CV death, MI, or severe recurrent ischemia ([1]; 60 days, ITT): 9.4% | Endpoint-defining events: CV death (%) ([1]; ITT, n = 3279, CV death or MI endpoint): 30.5% | Pts with events: first occurrence of CV death or MI ([1]; ITT, n = 3279, additional efficacy endpoint): 338 | Endpoint-defining events: CV death (%) [1, 8]: 14.6% | Pts with events: first occurrence of CV death, MI, or severe recurrent ischemia [1, 8]: 602 | Endpoint-defining events: CV death (%) [1, 9]: 12.5% | Pts with events: first occurrence of CV death, MI, or recurrent ischemia [1, 9]: 695 | Pts with events: CV death, MI, severe RI, or positive Holter for ischemia (%) ([1]; incidence at 30 days, ITT, n = 3279): 23% | Primary endpoint occurred in (% of patients) ([1]; ranolazine group, Example 7): 21.8% | HR for cardiovascular death or MI ([1]; ranolazine vs placebo): 0.99 | HR for recurrent ischemia ([1]; ranolazine vs placebo): 0.87 | HR for the primary endpoint ([1]; ranolazine vs placebo): 0.92 | Relative risk (SE): CV death, MI, or severe recurrent ischemia ([1]; ranolazine vs placebo, ITT, major secondary efficacy endpoint): 0.982 (0.06) | HR for worsening angina ([1]; women, ranolazine vs placebo): 0.61 | Seattle Angina Questionnaire, Anginal Frequency Scale: Median [2]: 100 | RR for primary CECG endpoint events ([3]; >72 hours after randomization): 0.86 | RR for CECG ischemic events ([3]; lower ischemic threshold of 0.5 mm): 0.91 | Any Clinically Significant Arrhythmia during 7 Day Holter (%) ([4]; All Patients Dosed, n = 3268): 71.3% | Bradycardic episode during 7 Day Holter (%) ([4]; All Patients Dosed, n = 3268): 38.5% | New onset atrial fibrillation during 7 Day Holter (%) ([4]; All Patients Dosed, n = 3268): 1.7% | Supraventricular tachycardia during 7 Day Holter (%) ([4]; Any SVT >= 120 bpm, n = 3268): 43.2% | Ventricular tachycardia during 7 Day Holter (%) ([4]; Any VT >= 100 bpm >= 3 beats, n = 3268): 29.0% | Pause > 3 secs (%) ([4]; Holter, first 7 days, n = 3162): (3.1) % | VT >= 8 beats (<30 secs) (%) ([4]; Holter, first 7 days, n = 3162): (5.5) % | New-onset atrial fibrillation (% of patients) ([4]; cECG first 7 days, Example 9): 1.7% | Polymorphic VT >= 8 beats (%) ([4]; cECG monitoring): (1.2) % | Sustained VT (>=30 sec) (%) ([4]; cECG monitoring): (0.44) % | VT ≧ 8 beats (<30 sec) (%) ([4]; cECG monitoring): (5.3) % | VT ≧ 8 beats (<30 sec) (%) ([4]; cECG monitoring, listed as ranolazine): 5.3% | Polymorphic VT >= 8 beats: Δ (%) [4, 10]: −21% | Sustained VT (>=30 sec): Δ [4, 10]: 0 | VT ≧ 3 beats (≧100 b/m): Δ (%) [4, 10]: −17% | VT ≧ 4 beats (≧100 b/m): Δ (%) [4, 10]: −30% | VT ≧ 8 beats (<30 sec): Δ (%) [4, 10]: −37% | Adverse event: Angina pectoris (%) ([5]; AE summary > 4% incidence): (8%) | Adverse event: Angina unstable (%) ([5]; AE summary > 4% incidence): (10%) | Adverse event: Asthenia (%) ([5]; AE summary > 4% incidence): (5%) | Adverse event: Cardiac failure (%) ([5]; AE summary > 4% incidence): (5%) | Adverse event: Chest pain (%) ([5]; AE summary > 4% incidence): (11%) | Adverse event: Constipation (%) ([5]; AE summary > 4% incidence): (9%) | Adverse event: Dizziness (%) ([5]; AE summary > 4% incidence): (13%) | Adverse event: Fatigue (%) ([5]; AE summary > 4% incidence): (4%) | Adverse event: Headache (%) ([5]; AE summary > 4% incidence): (7%) | Adverse event: Hypotension (%) ([5]; AE summary > 4% incidence): (5%) | Adverse event: Nausea (%) ([5]; AE summary > 4% incidence): (9%) | Serious adverse event: ACS (%) ([5]; SAEs ≧ 1% incidence): (2%) | Serious adverse event: Acute MI (%) ([5]; SAEs ≧ 1% incidence): (3%) | Serious adverse event: Angina pectoris (%) ([5]; SAEs ≧ 1% incidence): (4%) | Serious adverse event: Angina unstable (%) ([5]; SAEs ≧ 1% incidence): (8%) | Serious adverse event: Atrial fibrillation (%) ([5]; SAEs ≧ 1% incidence): (1%) | Serious adverse event: Cardiac failure (%) ([5]; SAEs ≧ 1% incidence): (4%) | Serious adverse event: Cardiac failure congestive (%) ([5]; SAEs ≧ 1% incidence): (1%) | Serious adverse event: Chest pain (%) ([5]; SAEs ≧ 1% incidence): (2%) | Serious adverse event: MI (%) ([5]; SAEs ≧ 1% incidence): (4%) | Serious adverse event: Syncope (%) ([5]; SAEs ≧ 1% incidence): (1%) | Patients early prematurely withdrawn due to AEs (%) ([5]; Safety - All Patients Dosed): (13%) | Patients with AEs (%) ([5]; Safety - All Patients Dosed): (76%) | Patients with AEs leading to death (%) ([5]; Safety - All Patients Dosed): (5%) | Patients with serious AEs (SAEs) (%) ([5]; Safety - All Patients Dosed): (34%) | Patients with study drug-related AEs (%) ([5]; Safety - All Patients Dosed): (30%) | Patients with HbA1C ≧ 7% (%) ([6]; Baseline (In-Hospital visit prior to randomization), all patients dosed): 24% | Patients with HbA1C ≧ 7% (%) ([6]; Diabetes at enrollment, n = 1098, Baseline): 57% | Patients with HbA1C ≧ 7% (%) ([6]; Diabetes at enrollment, n = 1098, Final Visit): 42% | Patients with HbA1C ≧ 7% (%) ([6]; Diabetes at enrollment, n = 1098, Month 4): 41% | Patients with HbA1C ≧ 7% (%) ([6]; Diabetes at enrollment, n = 1098, Month 8): 44% | Patients with HbA1C ≧ 7% (%) ([6]; Diabetes at enrollment, n = 1098, Month 16): 48% | Patients with HbA1C ≧ 7% (%) ([6]; Final Visit, all patients dosed): 17% | Patients with HbA1C ≧ 7% (%) ([6]; Month 4, all patients dosed): 17% | Patients with HbA1C ≧ 7% (%) ([6]; Month 8, all patients dosed): 18% | Patients with HbA1C ≧ 7% (%) ([6]; Month 16, all patients dosed): 20% | Patients with HbA1C ≧ 7% (%) ([6]; No Diabetes at enrollment, n = 2170, Baseline): 6% | Patients with HbA1C ≧ 7% (%) ([6]; No Diabetes at enrollment, n = 2170, Final Visit): 6% | Patients with HbA1C ≧ 7% (%) ([6]; No Diabetes at enrollment, n = 2170, Month 4): 5% | Patients with HbA1C ≧ 7% (%) ([6]; No Diabetes at enrollment, n = 2170, Month 8): 6% | Patients with HbA1C ≧ 7% (%) ([6]; No Diabetes at enrollment, n = 2170, Month 16): 7% | HbA1c ([6]; at 4 months, 4306 patients with serial measurements, least-square means): 5.9% | HR for worsening of hyperglycemia ([6]; diabetic patients, ranolazine vs placebo): 0.63 | HbA1c after decline (declined to) [6, 11]: 6.8 | HbA1c before decline (declined from) [6, 11]: 7.2 | Patients achieving HbA1c<7% ([6]; patients with DM, at 4 months): 59% | HR for new fasting glucose >110 mg/dL or HbA1c≧6% ([6]; patients without DM, ranolazine vs placebo): 0.68 | Incidence (Kaplan-Meier estimate) of death from any cause ([7]; 30 days): 1.8% | Incidence (Kaplan-Meier estimate) of death or CV hospitalization ([7]; 30 days): 9.2% | Incidence (Kaplan-Meier estimate) of death from any cause ([7]; 60 days): 2.2% | Incidence (Kaplan-Meier estimate) of death or CV hospitalization ([7]; 60 days): 15.0% | Incidence (Kaplan-Meier estimate) of death from any cause ([7]; 180 days): 3.4% | Incidence (Kaplan-Meier estimate) of death from any cause ([7]; 360 days): 5.3% | Incidence (Kaplan-Meier estimate) of death from any cause ([7]; 540 days): 7.0% | Pts with events: death from any cause ([7]; All Patients Dosed, n = 3268): 172 | Pts with events: first occurrence of death or CV hospitalization ([7]; All Patients Dosed, n = 3268): 1037 | Endpoint-defining events: Death (%) ([7]; death or CV hospitalization endpoint, n = 3268): 10.7% | Endpoint-defining events: CV hospitalization (%) ([7]; human, in vivo): 89.3% | Symptomatic documented arrhythmias (% of patients) ([7]; human, in vivo): 3.0% | HR for total mortality ([7]; ranolazine vs placebo): 0.99
